Measurements: paper PMC9312876, “Therapeutic Potential of a Novel Vitamin D3 Oxime Analogue, VD1-6, with CYP24A1 Enzyme Inhibitory Activity and Negligible Vitamin D Receptor Binding” (Biomolecules, 2022)

What was measured:
vitamin D receptor (VDR) [1] = target: T1, vitamin D receptor (VDR) (Homo sapiens, UniProt P11473); assay: fluorescence polarization competition with Fluormone VDR Red tracer (PolarScreen); format: binding
T1 construct: full-length
T1 sequence (P11473 1-427): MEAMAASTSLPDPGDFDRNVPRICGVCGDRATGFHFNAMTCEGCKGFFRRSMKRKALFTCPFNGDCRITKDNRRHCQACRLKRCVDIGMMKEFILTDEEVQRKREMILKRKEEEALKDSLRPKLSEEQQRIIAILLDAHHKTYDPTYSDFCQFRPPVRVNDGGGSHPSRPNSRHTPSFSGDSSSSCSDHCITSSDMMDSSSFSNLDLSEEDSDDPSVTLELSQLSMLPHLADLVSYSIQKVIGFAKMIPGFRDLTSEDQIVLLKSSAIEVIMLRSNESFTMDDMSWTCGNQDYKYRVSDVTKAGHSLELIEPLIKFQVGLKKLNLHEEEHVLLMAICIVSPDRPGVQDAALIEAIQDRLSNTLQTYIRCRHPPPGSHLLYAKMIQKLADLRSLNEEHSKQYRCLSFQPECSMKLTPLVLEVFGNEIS

vitamin D receptor (VDR) [2] = target: T1, vitamin D receptor (VDR); assay: fluorescence polarization competition with Fluormone VDR Red tracer (PolarScreen); binding only evident above […]

IC50 (vitamin D receptor (VDR) [1])	IC50 (vitamin D receptor (VDR) [2])	SMILES
56.2 nM	–	C=C1CC[C@H](O)C/C1=C/C=C1\CCC[C@]2(C)[C@@H]([C@H](C)CCCC(C)(C)O)CC[C@@H]12 [25(OH)D3]
–	438 nM	C=C1/C(=C\C=C2/CCC[C@]3(C)[C@@H]([C@H](C)CCC(=NOC)C(C)(C)C)CC[C@@H]23)C[C@@H](O)C[C@@H]1O [VD1-6]
